The values that follow come from the supplement of paper PMC10307832.

What all share (test): relative viability (nuclei count vs DMSO), 5 days (fraction); higher = more cells survive
Compound in the assay “Alpelisib + Bortezomib”: Cc1nc(NC(=O)N2CCC[C@H]2C(N)=O)sc1-c1ccnc(C(C)(C)C(F)(F)F)c1 [Alpelisib] + CC(C)C[C@H](NC(=O)[C@H](Cc1ccccc1)NC(=O)c1cnccn1)B(O)O [Bortezomib] (partner 0.002 µM)
The procedure, abridged:
(§1)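 After 5 days of treatment, lung cancer cells in 1536-well plates were fixed and stained in a single step (final 0.05% Triton X-100, 1% formaldehyde, 1 ug/ml Hoechst) and their nuclei counted on 4× images. Treatment had been applied by pin tool the day after seeding as one drug alone or as a fixed anchor-drug dose with five library-drug doses (not always all listed) in √10 steps. Relative viability is the nuclei count of treated wells divided by that of vehicle wells, and values are medians of duplicate plates.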

Compound in the assay “OSI-027 + Vorinostat”: COc1cccc2cc(-c3nc([C@H]4CC[C@H](C(=O)O)CC4)n4ncnc(N)c34)[nH]c12 [OSI-027] + O=C(CCCCCCC(=O)Nc1ccccc1)NO [Vorinostat] (partner 1 µM)
The procedure, abridged:
as §1

Compound in the assay “Vemurafenib + Vorinostat”: CCCS(=O)(=O)Nc1ccc(F)c(C(=O)c2c[nH]c3ncc(-c4ccc(Cl)cc4)cc23)c1F [Vemurafenib] + O=C(CCCCCCC(=O)Nc1ccccc1)NO [Vorinostat] (partner 1 µM)
The procedure, abridged: as §1

As for UMC-11, the relative viability in the assay with Alpelisib + Bortezomib (first compound 0.04 µM) amounted to 0.677; with Alpelisib + Bortezomib (first compound 0.1265 µM), 0.981; with Alpelisib + Bortezomib (first compound 0.4 µM), 0.672; with Alpelisib + Bortezomib (first compound 1.265 µM), 0.734; with Alpelisib + Bortezomib (first compound 4 µM), 0.465; with OSI-027 + Vorinostat (first compound 0.01 µM) it was 0.379. Moreover, the relative viability with OSI-027 + Vorinostat (first compound 0.03162 µM) came out at 0.371; with OSI-027 + Vorinostat (first compound 0.1 µM), 0.376; with OSI-027 + Vorinostat (first compound 0.3162 µM), 0.348; with OSI-027 + Vorinostat (first compound 1 µM) it was 0.275; in the assay with Vemurafenib + Vorinostat (first compound 0.03162 µM), 0.383; with Vemurafenib + Vorinostat (first compound 0.1 µM), 0.439. Further, the relative viability in the assay with Vemurafenib + Vorinostat (first compound 0.3162 µM) came to 0.576; in the assay with Vemurafenib + Vorinostat (first compound 1 µM), 0.37.
